Laboratory results reported in PubChem BioAssay (NCI).
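Where inhibition never reached the appropriate level, the endpoint shown equals the highest concentration tested. Otherwise, values were interpolated linearly from a five-concentration, 48-hour dose response in 96-well plates. The concentration for 50% growth inhibition is given as GI50. TGI: total growth inhibition.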

Key:
Test in all cases: NCI-60 cell line screen, 48 h; in the data active = GI50 below about 0.43 µM; inactive = the rest
CCRF-CEM leukemia = system: CCRF-CEM leukemia
OVCAR-3 ovarian = system: OVCAR-3 ovarian
SF-539 CNS = system: SF-539 CNS
UO-31 renal = system: UO-31 renal
SNB-75 CNS = system: SNB-75 CNS
BT-549 breast = system: BT-549 breast
OVCAR-8 ovarian = system: OVCAR-8 ovarian
LOX IMVI melanoma = system: LOX IMVI melanoma
COLO 205 colon = system: COLO 205 colon
PC-3 prostate = system: PC-3 prostate

O=C(O)CS(=O)c1ccc2c3c(cccc13)C(=O)c1ccccc1-2 (stereo not drawn)
> 100 µM: TGI (CCRF-CEM leukemia) | TGI (OVCAR-3 ovarian) | TGI (SF-539 CNS) | TGI (UO-31 renal) | TGI (SNB-75 CNS) | TGI (BT-549 breast) | TGI (OVCAR-8 ovarian) | TGI (LOX IMVI melanoma) | TGI (COLO 205 colon) | TGI (PC-3 prostate)

O=C(Nc1ccc(Cl)cc1)c1cccc([N+](=O)[O-])c1O
10.5 µM: TGI (COLO 205 colon)
11.7 µM: TGI (CCRF-CEM leukemia)
6.56 µM: TGI (UO-31 renal)
> 69.8 µM: TGI (OVCAR-8 ovarian)
9.09 µM: TGI (OVCAR-3 ovarian)
26.1 µM: TGI (SNB-75 CNS)
> 74.1 µM: TGI (SF-539 CNS)
> 100 µM: TGI (LOX IMVI melanoma)

COc1cc(C(=O)O[C@H](C(=O)NCCNC(=O)[C@@H](OC(=O)c2cc(OC)cc3c(C)cccc23)[C@]2(C)CO2)[C@]2(C)CO2)c2cccc(C)c2c1
0.0683 µM: TGI (OVCAR-8 ovarian)
active: GI50 (CCRF-CEM leukemia) < 0.01 µM | GI50 (SF-539 CNS) < 0.0348 µM | GI50 (UO-31 renal) 0.137 µM | GI50 (SNB-75 CNS) 0.304 µM | GI50 (BT-549 breast) 0.335 µM | GI50 (OVCAR-8 ovarian) < 0.01 µM | GI50 (LOX IMVI melanoma) < 0.01 µM | GI50 (COLO 205 colon) 0.149 µM | GI50 (PC-3 prostate) 0.109 µM
3.39 µM: TGI (BT-549 breast)
7.63 µM: TGI (OVCAR-3 ovarian)
0.371 µM: TGI (SF-539 CNS)
1.4 µM: TGI (SNB-75 CNS)
inactive: GI50 (OVCAR-3 ovarian) 0.721 µM

NC(Cc1ccccc1)=NCC(=O)O
> 100 µM: TGI (CCRF-CEM leukemia) | TGI (OVCAR-3 ovarian) | TGI (UO-31 renal) | TGI (SNB-75 CNS) | TGI (BT-549 breast) | TGI (OVCAR-8 ovarian) | TGI (LOX IMVI melanoma) | TGI (COLO 205 colon) | TGI (PC-3 prostate)

O=C(Nc1ccc(-n2cc(-c3ccncc3)c(-c3ccc(O)c(Cl)c3)n2)cc1)c1cc(Cl)cc(Cl)c1
inactive: GI50 (CCRF-CEM leukemia) 1.45 µM | GI50 (OVCAR-3 ovarian) 1.91 µM | GI50 (SF-539 CNS) 1.01 µM | GI50 (UO-31 renal) 1.62 µM | GI50 (SNB-75 CNS) 1.35 µM | GI50 (OVCAR-8 ovarian) 1.66 µM | GI50 (LOX IMVI melanoma) 0.853 µM | GI50 (COLO 205 colon) > 32.5 µM | GI50 (PC-3 prostate) 1.96 µM
> 32.5 µM: TGI (CCRF-CEM leukemia) | TGI (OVCAR-3 ovarian) | TGI (SF-539 CNS) | TGI (UO-31 renal) | TGI (SNB-75 CNS) | TGI (OVCAR-8 ovarian) | TGI (LOX IMVI melanoma) | TGI (COLO 205 colon) | TGI (PC-3 prostate)

C\C=C/C=C/C=C/C(=O)O
> 100 µM: TGI (CCRF-CEM leukemia) | TGI (OVCAR-3 ovarian) | TGI (SF-539 CNS) | TGI (UO-31 renal) | TGI (SNB-75 CNS) | TGI (OVCAR-8 ovarian) | TGI (LOX IMVI melanoma) | TGI (COLO 205 colon)
